Reference: PubChem BioAssay (NCI)
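Tested at 5 concentrations; 48 h exposure; 96-well plates; endpoints linearly interpolated, else capped at highest concentration. GI50 marks 50% less growth. At the TGI there is no net growth.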

Key:
Assay in all cases: growth of human tumour cells (NCI), 48 h
PC-3 prostate = system: PC-3 prostate
U251 CNS = system: U251 CNS
OVCAR-3 ovarian = system: OVCAR-3 ovarian
A498 renal = system: A498 renal
KM12 colon = system: KM12 colon
OVCAR-8 ovarian = system: OVCAR-8 ovarian
SF-295 CNS = system: SF-295 CNS
NCI-H23 lung = system: NCI-H23 lung
COLO 205 colon = system: COLO 205 colon
CAKI-1 renal = system: CAKI-1 renal

SMILES | TGI (PC-3 prostate) | TGI (U251 CNS) | TGI (OVCAR-3 ovarian) | TGI (A498 renal) | TGI (KM12 colon) | TGI (OVCAR-8 ovarian) | TGI (SF-295 CNS) | TGI (NCI-H23 lung) | TGI (COLO 205 colon) | TGI (CAKI-1 renal) | GI50 (PC-3 prostate) | GI50 (U251 CNS) | GI50 (OVCAR-3 ovarian) | GI50 (A498 renal) | GI50 (KM12 colon) | GI50 (OVCAR-8 ovarian) | GI50 (SF-295 CNS) | GI50 (NCI-H23 lung) | GI50 (COLO 205 colon) | GI50 (CAKI-1 renal)
O=C(N/N=C\c1ccc([N+](=O)[O-])cc1)Nc1cccc2ccccc12 | > 71.4 µM | 23.6 µM | > 100 µM | 40.9 µM | > 100 µM | 34.7 µM | 22.6 µM | 61.9 µM | > 100 µM | 33.1 µM | – | – | – | – | – | – | – | – | – | –
CC1(C)C(=O)C2(OS(=O)(=O)C(F)(F)F)CCC1C2 (centres undefined) | > 100 µM | > 100 µM | > 100 µM | > 100 µM | > 100 µM | > 100 µM | > 100 µM | > 100 µM | > 100 µM | > 100 µM | – | – | – | – | – | – | – | – | – | –
NCCCc1c(-c2ccccc2)nc(N)[nH]c1=O | > 100 µM | > 100 µM | > 100 µM | > 100 µM | > 100 µM | > 100 µM | > 100 µM | > 100 µM | > 100 µM | > 100 µM | – | – | – | – | – | – | – | – | – | –
Oc1ccc2ccccc2c1N=Nc1ccccn1 | > 100 µM | > 100 µM | – | 20 µM | > 100 µM | > 27.4 µM | 13.5 µM | > 100 µM | 21.4 µM | 0.906 µM | 1760 nM | 563 nM | 266 nM | 2390 nM | 919 nM | 447 nM | 800 nM | 2820 nM | 431 nM | 138 nM
N#CC(N=Nc1ccccc1)c1nc2ccccc2o1 (centres undefined) | > 100 µM | 59.5 µM | 92.7 µM | > 100 µM | > 100 µM | 79.4 µM | 35.5 µM | 43.9 µM | 68.7 µM | > 100 µM | – | – | – | – | – | – | – | – | – | –
COC1(OC)C2(Cl)C(Cl)=C(Cl)C1(Cl)C1COCC12 (centres undefined) | > 100 µM | > 75 µM | > 100 µM | > 100 µM | > 100 µM | > 100 µM | > 100 µM | > 71.2 µM | > 100 µM | > 100 µM | – | – | – | – | – | – | – | – | – | –
CCOP(=O)(OCC)/C(C#N)=C/c1cccn1N(C)C | > 100 µM | > 100 µM | > 100 µM | > 100 µM | > 100 µM | > 100 µM | > 100 µM | > 100 µM | > 100 µM | > 100 µM | – | – | – | – | – | – | – | – | – | –
Cc1ccc(O)c(-c2csc(NCN3CCN(CNc4nc(-c5cc(C)ccc5O)cs4)CC3)n2)c1 | > 100 µM | > 100 µM | > 100 µM | > 100 µM | > 100 µM | > 100 µM | > 100 µM | > 100 µM | > 100 µM | > 100 µM | – | – | – | – | – | – | – | – | – | –
O=C(CN1CCOCC1)CC(O)(C(F)(F)F)C(F)(F)F | 99.8 µM | > 100 µM | > 100 µM | > 100 µM | > 100 µM | > 100 µM | > 100 µM | > 100 µM | > 100 µM | > 100 µM | – | – | – | – | – | – | – | – | – | –
O=C1CC(c2ccc[nH]2)=NN1c1ccccc1 | > 100 µM | > 100 µM | > 100 µM | > 100 µM | > 100 µM | > 100 µM | > 100 µM | > 100 µM | > 100 µM | > 100 µM | – | – | – | – | – | – | – | – | – | –
O[C@H]1[C@H](O)[C@H](O)CN2CCC[C@@H](O)[C@H]12 | > 100 µM | > 100 µM | > 100 µM | > 100 µM | > 100 µM | > 100 µM | > 100 µM | > 100 µM | > 100 µM | > 100 µM | – | – | – | – | – | – | – | – | – | –
CC(C)NC(=O)OCc1c(COC(=O)NC(C)C)c(-c2ccc[n+](COC(=O)C3CC3)c2)n2c1CCC2 | > 100 µM | > 100 µM | > 100 µM | 88.1 µM | > 100 µM | > 100 µM | > 100 µM | > 100 µM | > 100 µM | 89 µM | – | – | – | – | – | – | – | – | – | –
COC(=O)[C@H](Cc1ccccc1)NP(=O)(O)OCC1OC(n2cc(C)c(=O)[nH]c2=O)CC1N=[N+]=[N-] (some centres undefined) | > 100 µM | > 100 µM | > 100 µM | > 100 µM | > 100 µM | > 100 µM | > 100 µM | > 100 µM | > 100 µM | > 100 µM | – | – | – | – | – | – | – | – | – | –
CSc1nncc2[nH]cnc12 | > 100 µM | > 100 µM | > 100 µM | > 100 µM | > 100 µM | > 100 µM | > 100 µM | > 100 µM | > 100 µM | > 100 µM | – | – | – | – | – | – | – | – | – | –
O=C(CCc1ccccc1CO)NCCc1ccccc1 | > 100 µM | > 100 µM | > 100 µM | > 100 µM | > 100 µM | > 100 µM | > 100 µM | > 100 µM | > 100 µM | > 100 µM | – | – | – | – | – | – | – | – | – | –
CCN(CC)CCSc1nc2c(c(=N)n1-c1ccccc1)c(=S)n(-c1ccccc1)c(=S)n2-c1ccccc1 | 3.32 µM | 6.4 µM | 3.07 µM | 22.2 µM | 12.8 µM | 3.54 µM | 30.1 µM | 10.8 µM | 3.51 µM | 2.94 µM | – | – | – | – | – | – | – | – | – | –
COC(=O)c1ccc(CCc2cc(O)c(Br)cc2O)cc1 | 20.6 µM | 25.8 µM | 19.8 µM | 40.7 µM | > 55.3 µM | 30.9 µM | 28 µM | 15.4 µM | 27.3 µM | 23.2 µM | – | – | – | – | – | – | – | – | – | –
COc1cc2c(cc1OC)C(Cc1ccccc1CCCl)=NCC2 | > 100 µM | > 100 µM | > 100 µM | > 100 µM | > 100 µM | > 100 µM | > 100 µM | > 100 µM | > 100 µM | > 100 µM | – | – | – | – | – | – | – | – | – | –
